One assay has as its target BRD4 BD2 protein (Homo sapiens (Human), UniProt O60885). As to the kind of experiment: Fluorescence polarization binding affinity (Ki) with BRD4 BD2 protein. In general terms: Fluorescence polarisation rises when a labelled molecule tumbles more slowly, as on binding a larger partner.
The next assay deals with BRD4 BD1 protein (Homo sapiens (Human), UniProt O60885). As to the kind of experiment: Fluorescence polarization binding affinity (Ki) with BRD4 BD1 protein.
Where [1] appears, read: fluorescence polarization, Ki calculated from IC50.

SMILES strings stand for the structures. Read-outs that look alike come from different tables or passages of the source.

As for `Cc1nnn2c1-c1ccc(C3=CCNCC3)cc1C(Nc1ccccc1C#N)CC2` (stereo not shown) [RC116, 2-((1-methyl-9-(1,2,3,6-tetrahydropyridin-4-yl)-6,7-dihydro-5H-benzo[c][1,2,3]triazolo[1,5-a]azepin-7-yl)amino)benzonitrile 2,2,2-trifluoroacetate], the Ki (in general, a dissociation constant, usually derived from enzyme kinetics or from competition with a known ligand) on BRD4 BD2 protein (setting [1]) was 115 nM; on BRD4 BD1 protein (setting [1]) it was 1000 nM.

Regarding `Cc1nnn2c1-c1ccc(C3=CCN(C4CCCC4)CC3)cc1C(Nc1cccc(C#N)c1)CC2` (stereo not shown) [BI31, 3-((9-(1-cyclopentyl-1,2,3,6-tetrahydropyridin-4-yl)-1-methyl-6,7-dihydro-5H-benzo[c][1,2,3]triazolo[1,5-a]azepin-7-yl)amino)benzonitrile 2,2,2-trifluoroacetate], the figures for the Ki at BRD4 BD2 protein (setting [1]) and at BRD4 BD1 protein (setting [1]) were 151 nM and 2290 nM, respectively.

As for `Cc1nnn2c1-c1ccc(C3=CCNCC3)cc1C(Nc1ccc3[nH]ccc3c1)CC2` (stereo not shown) [WA82, N-(1H-indo1-5-yl)-1-methyl-9-(1,2,3,6-tetrahydropyridin-4-yl)-6,7-dihydro-5H-benzo[c][1,2,3]triazolo[1,5-a]azepin-7-amine 2,2,2-trifluoroacetate], the results for the Ki at BRD4 BD2 protein (setting [1]) and at BRD4 BD1 protein (setting [1]) were 53.6 nM and 436 nM, respectively.

`Cc1nnn2c1-c1ccc(-c3cnn(C)c3)cc1[C@H](Nc1ccc(Cl)cc1)CC2` [RE127, (R)—N-(4-chlorophenyl)-1-methyl-9-(1-methyl-1H-pyrazo1-4-yl)-6,7-dihydro-5H-benzo[c][1,2,3]triazolo[1,5-a]azepin-7-amine]: the Ki is < 1 nM at BRD4 BD2 protein (setting [1]) and 4.15 ± 0.21 nM on BRD4 BD1 protein (setting [1]).

With `Cc1nnn2c1-c1ccc(-c3cnn(C)c3)cc1C(Nc1cccc(CCN(C)C)c1)CC2` (stereo not shown) [LC101, N-(3-(2-(dimethylamino)ethyl)phenyl)-1-methyl-9-(1-methyl-1H-pyrazol-4-yl)-6,7-dihydro-5H-benzo[c][1,2,3]triazolo[1,5-a]azepin-7-amine], the Ki at BRD4 BD2 protein (setting [1]) is 13.6 nM; on BRD4 BD1 protein (setting [1]) it was 89 nM.

Regarding `Cc1nnn2c1-c1ccc(C3=CCN(C)CC3)cc1C(Nc1ccc(CO)cc1)CC2` (stereo not shown) [RD41, (4-((1-methyl-9-(1-methyl-1,2,3,6-tetrahydropyridin-4-yl)-6,7-dihydro-5H-benzo[c][1,2,3]triazolo[1,5-a]azepin-7-yl)amino)pheny 1)methanol 2,2,2-trifluoroacetate], the figures for the Ki on BRD4 BD2 protein (setting [1]) and at BRD4 BD1 protein (setting [1]) were 55.1 nM and 1550 nM, respectively.

With `CC(=O)N1CC=C(c2ccc3c(c2)C(N(C(C)=O)c2cccc(Cl)c2)CCn2nnc(C)c2-3)CC1` (stereo not shown) [LD13], the Ki was 1740 nM on BRD4 BD2 protein and 944 nM at BRD4 BD1 protein.

With `Cc1nnn2c1-c1ccc(C3=CCN(C(=O)C4CC4)CC3)cc1C(Nc1cccc(Cl)c1)CC2` (stereo not shown) [BH123, (4-(7-((3-chlorophenyl)amino)-1-methyl-6,7-dihydro-5H-benzo[c][1,2,3]triazolo[1,5-a]azepin-9-yl)-3,6-dihydropyridin-1 (2H)-yl) (cyclopropyl)methanone], the inhibition constant (Ki) is 7.64 nM on BRD4 BD2 protein (setting [1]) and 46.7 nM at BRD4 BD1 protein (setting [1]).

With `Cc1nnn2c1-c1ccc(C3=CCN(C(C)C)CC3)cc1C(Nc1ccc(F)c(Cl)c1)CC2` (stereo not shown) [BI24, N-(3-chloro-4-fluorophenyl)-9-(1-isopropyl-1,2,3,6-tetrahydropyridin-4-yl)-1-methyl-6,7-dihydro-5H-benzo[c][1,2,3]triazolo[1,5-a]azepin-7-amine 2,2,2-trifluoroacetate], the results for the Ki on BRD4 BD2 protein (setting [1]) and at BRD4 BD1 protein (setting [1]) were 86.4 nM and 5410 nM, respectively.

For `Cc1nnn2c1-c1ccc(C3=CCNCC3)cc1C(Nc1ccc(F)c(Cl)c1)CC2` (stereo not shown) [LC192, N-(3-chloro-4-fluorophenyl)-1-methyl-9-(1,2,3,6-tetrahydropyridin-4-yl)-6,7-dihydro-5H-benzo[c][1,2,3]triazolo[1,5-a]azepin-7-amine 2,2,2-trifluoroacetate], the results for the Ki at BRD4 BD2 protein (setting [1]) and on BRD4 BD1 protein (setting [1]) were 56.6 nM and 819 nM, respectively.

With `Cc1nnn2c1-c1ccc(C3=CCNCC3)cc1C(Nc1ccc(OCCO)cc1)CC2` (stereo not shown) [LC133, 2-(4-((1-methyl-9-(1,2,3,6-tetrahydropyridin-4-yl)-6,7-dihydro-5H-benzo[c][1,2,3]triazolo[1,5-a]azepin-7-yl)amino)phenoxy)ethan-1-ol 2,2,2-trifluoroacetate], the inhibitory constant (Ki) at BRD4 BD2 protein (setting [1]) was 207 nM; at BRD4 BD1 protein (setting [1]), 2190 nM.

Turning to `Cc1nnn2c1-c1ccc(-c3cnn(C)c3)cc1C(Nc1c(F)cccc1Cl)CC2` (stereo not shown) [LC185, N-(2-chloro-6-fluorophenyl)-1-methyl-9-(1-methyl-1H-pyrazol-4-yl)-6,7-dihydro-5H-benzo[c][1,2,3]triazolo[1,5-a]azepin-7-amine], the figures for the Ki on BRD4 BD2 protein (setting [1]) and on BRD4 BD1 protein (setting [1]) were 16.4 nM and 162 nM, respectively.

In the case of `Cc1nnn2c1-c1ccc(C3=CCN(C4CCCCC4)CC3)cc1C(Nc1cccc(Cl)c1F)CC2` (stereo not shown) [RD178, N-(3-chloro-2-fluorophenyl)-9-(1-cyclohexyl-1,2,3,6-tetrahydropyridin-4-yl)-1-methyl-6,7-dihydro-5H-benzo[c][1,2,3]triazolo[1,5-a]azepin-7-amine 2,2,2-trifluoroacetate], the Ki at BRD4 BD2 protein was determined as 32.7 nM; on BRD4 BD1 protein, 1260 nM.

Take `CCN1CC=C(c2ccc3c(c2)C(Nc2cc(Cl)ccc2F)CCn2nnc(C)c2-3)CC1` (stereo not shown) [RD123, N-(5-chloro-2-fluorophenyl)-9-(1-ethyl-1,2,3,6-tetrahydropyridin-4-yl)-1-methyl-6,7-dihydro-5H-benzo[c][1,2,3]triazolo[1,5-a]azepin-7-amine 2,2,2-trifluoroacetate]: the Ki on BRD4 BD2 protein amounted to 40.8 nM; at BRD4 BD1 protein it was 1090 nM.

On to `Cc1nnn2c1-c1ccc(C3=CCN(C4CCC4)CC3)cc1C(Nc1cccc(C#N)c1)CC2` (stereo not shown) [BI36, 3-(((9-(1-cyclobutyl-1,2,3,6-tetrahydropyridin-4-yl))-1-methyl-6,7-dihydro-5H-benzo[c][1,2,3]triazolo[1,5-a]azepin-7-yl)amino)benzonitrile 2,2,2-trifluoroacetate], for which the figures for the Ki on BRD4 BD2 protein (setting [1]) and at BRD4 BD1 protein (setting [1]) were 89.8 nM and 1850 nM, respectively.

Consider `Cc1nnn2c1-c1ccc(C3=CCNCC3)cc1C(Nc1cccc(Cl)c1F)CC2` (stereo not shown) [LC190, N-(3-chloro-2-fluorophenyl)-1-methyl-9-(1,2,3,6-tetrahydropyridin-4-yl)-6,7-dihydro-5H-benzo[c][1,2,3]triazolo[1,5-a]azepin-7-amine 2,2,2-trifluoroacetate], for which the results for the Ki on BRD4 BD2 protein (setting [1]) and at BRD4 BD1 protein (setting [1]) were 60 nM and 592 nM, respectively.

Take `CCC(C)N1CC=C(c2ccc3c(c2)C(Nc2ccc(Cl)cc2)CCn2nnc(C)c2-3)CC1` (stereo not shown) [LD17, 9-(1-(sec-butyl)-1,2,3,6-tetrahydropyridin-4-yl)-N-(4-chlorophenyl)-1-methyl-6,7-dihydro-5H-benzo[c][1,2,3]triazolo[1,5-a]azepin-7-amine 2,2,2-trifluoroacetate]: the Ki is 51 nM on BRD4 BD2 protein (setting [1]) and 616 nM at BRD4 BD1 protein (setting [1]).

`CCN1CC=C(c2ccc3c(c2)C(Nc2ccc(F)c(Cl)c2)CCn2nnc(C)c2-3)CC1` (stereo not shown) [RD121, N-(3-chloro-4-fluorophenyl)-9-(1-ethyl-1,2,3,6-tetrahydropyridin-4-yl)-1-methyl-6,7-dihydro-5H-benzo[c][1,2,3]triazolo[1,5-a]azepin-7-amine 2,2,2-trifluoroacetate]: the Ki at BRD4 BD2 protein came to 31.8 nM; on BRD4 BD1 protein, 788 nM.

For `Cc1nnn2c1-c1ccc(C3=CCN(C(C)C)CC3)cc1C(Nc1cccc(C#N)c1)CC2` (stereo not shown) [BI34, 3-((9-(1-isopropyl-1,2,3,6-tetrahydropyridin-4-yl)-1-methyl-6,7-dihydro-5H-benzo[c][1,2,3]triazolo[1,5-a]azepine7-yl)amino)benzonitrile 2,2,2-trifluoroacetate], the figures for the Ki on BRD4 BD2 protein (setting [1]) and on BRD4 BD1 protein (setting [1]) were 291 nM and 4200 nM, respectively.

For `Cc1nnn2c1-c1ccc(C3=CCN(C4CCCCC4)CC3)cc1C(Nc1cccc(C#N)c1)CC2` (stereo not shown) [BI29, 3-((9-(1-cyclohexyl-1,2,3,6-tetrahydropyridin-4-yl)-1-methyl-6,7-dihydro-5H-benzo[c][1,2,3]triazolo[1,5-a]azepin-7-yl)amino)benzonitrile 2,2,2-trifluoroacetate], the results for the Ki on BRD4 BD2 protein (setting [1]) and on BRD4 BD1 protein (setting [1]) were 168 nM and 2660 nM, respectively.

For `Cc1nnn2c1-c1ccc(C3=CCN(C(C)C)CC3)cc1C(Nc1cccc(S(C)(=O)=O)c1)CC2` (stereo not shown) [BI60, 9-(1-isopropyl-1,2,3,6-tetrahydropyridin-4-yl)-1-methyl-N-(3-(methylsulfonyl)phenyl)-6,7-dihydro-5H-benzo[c][1,2,3]triazolo[1,5-a]azepin-7-amine 2,2,2-trifluoroacetate], the Ki is 307 nM at BRD4 BD2 protein (setting [1]) and 4740 nM on BRD4 BD1 protein (setting [1]).

`CNC(=O)Cc1ccccc1NC1CCn2nnc(C)c2-c2ccc(C3=CCNCC3)cc21` (stereo not shown) [LC132]: the Ki was 55.9 nM at BRD4 BD2 protein (setting [1]) and 724 nM on BRD4 BD1 protein (setting [1]).

Consider `CC(=O)N1CC=C(c2ccc3c(c2)C(Oc2cccc(Cl)c2)CCn2nnc(C)c2-3)CC1` (stereo not shown) [BH81, 1-(4-(7-(3-chlorophenoxy)-1-methyl-6,7-dihydro-5H-benzo[c][1,2,3]triazolo[1,5-a]azepin-9-yl)-3,6-dihydropyridin-1(2H)-yl)ethan-1-one], for which the Ki at BRD4 BD2 protein (setting [1]) was 31.1 nM; on BRD4 BD1 protein (setting [1]), 869 nM.

On to `CCn1cc(-c2ccc3c(c2)C(Nc2ccc(Cl)cc2)CCc2onc(C)c2-3)cn1` (stereo not shown) [LA93, N-(4-chlorophenyl)-1-methyl-8-(1-ethyl-1H-pyrazol-4-yl)-5,6-dihydro-4H-benzo[6,7]cyclohepta[1,2-d]isoxazol-6-amine], for which the Ki on BRD4 BD2 protein (setting [1]) is 46.7 nM; at BRD4 BD1 protein (setting [1]), 76.3 nM.

Consider `Cc1nnn2c1-c1ccc(-c3cnn(C)c3)cc1C(NC1CCCCC1)CC2` (stereo not shown) [BH46, N-cyclohexyl-1-methyl-9-(1-methyl-1H-pyrazol-4-yl)-6,7-dihydro-5H-benzo[c][1,2,3]triazolo[1,5-a]azepin-7-amine 2,2,2-trifluoroacetate], for which the figures for the Ki on BRD4 BD2 protein (setting [1]) and on BRD4 BD1 protein (setting [1]) were 907 nM and 689 nM, respectively.

`COc1cccc(NC2CCn3nnc(C)c3-c3ccc(C4=CCN(C(C)=O)CC4)cc32)c1` (stereo not shown) [BH27, 1-(4-(7-((3-methoxyphenyl)amino)-1-methyl-6,7-dihydro-5H-benzo[c][1,2,3]triazolo[1,5-a]azepin-9-yl)-3,6-dihydropyridin-1(2H)-yl)ethan-1-one]: the Ki was 2.95 nM at BRD4 BD2 protein (setting [1]) and 70.1 nM on BRD4 BD1 protein (setting [1]).

The record behind these values is patent US12286435B2, “Compound having benzo seven-membered ring structure, preparation method therefor, and use thereof” (BIONNA (BEIJING) MEDICAL TECHNOLOGY CO., LTD., priority 2019, dated 2025).
